Test results: patent US20220378801A1, “NOVEL COMPOUNDS” (AC Immune SA, priority 2019, published 2022)

Assays:
Assay type in all cases: cell-based
NLRP3 inflammasome [1] = biological target: T1, NLRP3 inflammasome (Homo sapiens, UniProt Q96P20); assay: NLRP3 inflammasome activation assay, IL-1 beta release, HMDM cells, MSU stimulation; conditions: LPS-primed primary human monocyte-derived macrophages; MSU 150 μg/ml 3 h; IL-1β by AlphaLISA
Procedure: (§1) The following assays can be used to determine the inhibitory activity of test compounds on the NLRP3 inflammasome using common stimuli nigericin (Invivogen) or monosodium urate crystals (MSU)(Invivogen).
(§2) Human monocyte-like cells are cultured in RPM11640 Glutamax medium supplemented with 10% heat inactivated FCS and 50 U/ml penicillin-streptomycin (Life Technologies). HMDM (Human Monocyte Derived Macrophage) are isolated from human blood with leucosep tubes and classical monocyte isolation kit from Miltenyi based on negative selection.
(§3) Primary human monocyte-derived macrophages (HMDM) are seeded at 30000 per well in a 96 well plate and differentiated into macrophages with 10 ng/ml Human M-CSF (Macrophage Colony Stimulating Factor). At DIV 8 (Day in vitro) medium containing 10 ng/ml LPS is added. After 3 h of LPS priming, concentrations of test compound in the range from […] are added 30 min prior to NLRP3 inflammasome stimulation with Nigericin 2.5 μM or MSU 150 μg/ml for 3 h.
(§4) For IL-1β quantification, supernatants are analyzed using AlphaLISA kits according to the manufacturer's instructions (Perkin Elmer AlphaLISA AL220F).
(§5) IC50 (concentration corresponding to 50% inhibition) were determined using GraphPad Prism 8.

NLRP3 inflammasome [2] = biological target: T1, NLRP3 inflammasome; assay: NLRP3 inflammasome activation assay, IL-1 beta release, HMDM cells, Nigericin stimulation; conditions: LPS-primed primary human monocyte-derived macrophages; Nigericin 2.5 μM 3 h; IL-1β by AlphaLISA
Procedure: as §1, §2, §3, §4, §5

NLRP3 inflammasome [3] = biological target: T1, NLRP3 inflammasome; assay: NLRP3 inflammasome activation assay, IL-1 beta release, human monocyte-like cells, MSU stimulation; parameters: endogenous in cells; conditions: PMA-differentiated, LPS-primed human monocyte-like cells; MSU 150 μg/ml 3 h; IL-1β by AlphaLISA
Procedure: as §1, §2
(§6) NLRP3 inflammasome activation assays Human monocyte-like cells are seeded at 75000 per well in a 96 well plate and differentiated overnight into macrophages with 10 ng/ml PMA (Phorbol Myristate Acetate). The following day, medium containing 10 ng/ml LPS (lipopolysaccharide) is added. After 3 h of LPS priming, concentrations of test compound in the range from 100 μM to 6 nM are added 30 min prior to NLRP3 inflammasome stimulation with Nigericin 3.75 μM or MSU 150 μg/ml for 3 h.
as §4, §5

NLRP3 inflammasome [4] = biological target: T1, NLRP3 inflammasome; assay: NLRP3 inflammasome activation assay, IL-1 beta release, human monocyte-like cells, Nigericin stimulation; parameters: endogenous in cells; conditions: PMA-differentiated, LPS-primed human monocyte-like cells; Nigericin 3.75 μM 3 h; IL-1β by AlphaLISA
Procedure: as §1, §2, §6, §4, §5

T1 sequence (Q96P20 whole entry): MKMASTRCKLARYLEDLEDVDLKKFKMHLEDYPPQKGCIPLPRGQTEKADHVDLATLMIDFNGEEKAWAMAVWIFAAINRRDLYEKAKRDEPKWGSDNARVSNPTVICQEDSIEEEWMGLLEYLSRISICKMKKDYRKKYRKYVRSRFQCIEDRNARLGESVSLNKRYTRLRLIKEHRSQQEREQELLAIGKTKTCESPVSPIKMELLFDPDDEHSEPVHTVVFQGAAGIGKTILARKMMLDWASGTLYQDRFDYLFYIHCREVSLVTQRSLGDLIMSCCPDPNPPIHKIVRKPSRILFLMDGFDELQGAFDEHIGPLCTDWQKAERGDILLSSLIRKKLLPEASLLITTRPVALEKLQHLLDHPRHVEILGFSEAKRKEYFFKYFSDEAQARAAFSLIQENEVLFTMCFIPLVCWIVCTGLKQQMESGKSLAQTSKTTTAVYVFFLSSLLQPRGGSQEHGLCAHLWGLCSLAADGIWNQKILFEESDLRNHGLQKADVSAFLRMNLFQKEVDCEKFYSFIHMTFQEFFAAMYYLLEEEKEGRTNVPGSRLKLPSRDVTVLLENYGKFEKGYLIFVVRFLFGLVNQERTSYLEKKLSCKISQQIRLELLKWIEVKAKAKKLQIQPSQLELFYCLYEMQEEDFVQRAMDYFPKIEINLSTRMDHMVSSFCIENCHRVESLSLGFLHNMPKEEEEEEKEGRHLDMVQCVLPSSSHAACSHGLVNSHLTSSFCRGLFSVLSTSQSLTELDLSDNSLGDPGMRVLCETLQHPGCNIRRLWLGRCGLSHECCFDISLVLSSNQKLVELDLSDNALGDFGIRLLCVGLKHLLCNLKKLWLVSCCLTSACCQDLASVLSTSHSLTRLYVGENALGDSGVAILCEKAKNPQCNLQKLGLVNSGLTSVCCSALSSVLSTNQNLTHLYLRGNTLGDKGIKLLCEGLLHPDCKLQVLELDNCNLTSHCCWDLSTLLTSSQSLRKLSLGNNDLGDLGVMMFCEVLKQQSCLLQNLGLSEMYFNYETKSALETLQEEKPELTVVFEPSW

Row | SMILES | IC50 (NLRP3 inflammasome [1]) [µM] | IC50 (NLRP3 inflammasome [2]) [µM] | IC50 (NLRP3 inflammasome [3]) [µM] | IC50 (NLRP3 inflammasome [4]) [µM]
1 | O=C(N=S1(=O)NC(=O)c2ccccc21)Nc1c2c(cc3c1CCC3)CCC2 (racemic) [Example 1] | < 1 | 1 to 10 | < 1 | 1 to 10
2 | O=C(N=S1(=O)NC(=O)c2ccccc21)Nc1c2c(cc3c1CCC3)CCC2 (single isomer, unassigned) [Example 1b] | < 1 | 1 to 10 | < 1 | 1 to 10
3 | O=C(N=S1(=O)NC(=O)c2cccnc21)Nc1c2c(cc3c1CCC3)CCC2 (single isomer, unassigned) [Example 32] | – | – | < 1 | 1 to 10
4 | O=C(Nc1c2c(cc3c1CCC3)CCC2)NS1(=O)=NC(=O)c2ccccc2C1 (single isomer, unassigned) [Example 33] | – | – | < 1 | 1 to 10
5 | O=C(Nc1c2c(cc3c1CCC3)CCC2)NS1(=O)=NC(=O)c2ccccc2C1 (single isomer, unassigned) [Example 34] | < 1 | 1 to 10 | < 1 | < 1
6 | O=C(Nc1c2c(cc3c1CCC3)CCC2)NS1(=O)=NC(=O)c2sccc21 (single isomer, unassigned) [Example 35] | 1 to 10 | – | < 1 | 1 to 10
7 | O=C(Nc1c2c(cc3c1CCC3)CCC2)NS1(=O)=NC(=O)c2sccc21 (single isomer, unassigned) [Example 36] | < 1 | < 1 | < 1 | < 1
8 | O=C(Nc1c2c(c(F)c3c1CCC3)CCC2)NS1(=O)=NC(=O)c2ccccc21 (single isomer, unassigned) [Example 37] | < 1 | 1 to 10 | < 1 | < 1
9 | O=C(Nc1c2c(cc3c1CCC3)CCC2)NS1(=O)=NC(=O)c2ccncc21 (single isomer, unassigned) [Example 38] | – | – | < 1 | 1 to 10
10 | O=C(Nc1c2c(cc3c1CCC3)CCC2)NS1(=O)=NC(=O)c2ncccc21 (single isomer, unassigned) [Example 39] | – | – | 1 to 10 | 1 to 10
11 | CC(C)(O)c1ccc2c(c1)S(=O)(=NC(=O)Nc1c3c(cc4c1CCC4)CCC3)NC2=O (single isomer, unassigned) [Example 40] | 1 to 10 | – | < 1 | 1 to 10
12 | O=C(Nc1c2c(cc3c1CCC3)CCC2)NS1(=O)=NC(=O)c2c(Cl)cccc21 (single isomer, unassigned) [Example 43] | – | – | < 1 | 1 to 10
13 | O=C(Nc1c2c(cc3c1CCC3)CCC2)NS1(=O)=NC(=O)c2cc(Cl)ccc21 (single isomer, unassigned) [Example 44] | – | – | < 1 | 1 to 10
14 | O=C(Nc1c2c(cc3c1CCC3)CCC2)NS1(=O)=NC(=O)c2ccc(Cl)cc21 (single isomer, unassigned) [Example 45] | – | – | < 1 | 1 to 10
15 | Cc1cccc2c1C(=O)N=S2(=O)NC(=O)Nc1c2c(cc3c1CCC3)CCC2 (single isomer, unassigned) [Example 46] | – | – | < 1 | 1 to 10
16 | Cc1cccc2c1C(=O)N=S2(=O)NC(=O)Nc1c2c(cc3c1CCC3)CCC2 (single isomer, unassigned) [Example 47] | – | – | < 1 | 1 to 10
17 | CC(C)c1ccc2c(c1NC(=O)NS1(=O)=NC(=O)c3sccc31)CCO2 (single isomer, unassigned) [Example 49] | – | – | < 1 | 1 to 10
18 | COc1cc(-c2cc(F)cc(C(C)C)c2NC(=O)NS2(=O)=NC(=O)c3sccc32)ccn1 (single isomer, unassigned) [Example 50] | – | – | 1 to 10 | 1 to 10
19 | COc1cc(-c2cc(F)cc(C(C)C)c2NC(=O)NS2(=O)=NC(=O)c3sccc32)ccn1 (single isomer, unassigned) [Example 51] | – | – | < 1 | < 1
20 | COc1cc(-c2ccc3c(c2NC(=O)NS2(=O)=NC(=O)c4sccc42)CCC3)ccn1 (single isomer, unassigned) [Example 52] | – | – | 1 to 10 | 1 to 10
21 | COc1cc(-c2ccc3c(c2NC(=O)NS2(=O)=NC(=O)c4sccc42)CCC3)ccn1 (single isomer, unassigned) [Example 53] | – | – | < 1 | < 1
22 | O=C(Nc1c2c(c(F)c3c1CCC3)CCC2)NS1(=O)=NC(=O)c2sccc21 (single isomer, unassigned) [Example 54] | 1 to 10 | – | < 1 | 1 to 10
23 | O=C(Nc1c(Br)ccc2c1CCO2)NS1(=O)=NC(=O)c2sccc21 (single isomer, unassigned) [Example 56] | – | – | 1 to 10 | 10 to 30

Row | SMILES | IC50 (NLRP3 inflammasome [1]) [µM] | IC50 (NLRP3 inflammasome [2]) [µM] | IC50 (NLRP3 inflammasome [3]) [µM] | IC50 (NLRP3 inflammasome [4]) [µM]
24 | O=C(Nc1c2c(cc3c1CCC3)CCC2)NS1(=O)=NC(=O)c2cc(Br)ccc21 (single isomer, unassigned) [Example 58] | – | – | < 1 | 1 to 10
25 | O=C(Nc1c2c(cc3c1CCC3)CCC2)NS1(=O)=NC(=O)c2cc(Br)ccc21 (single isomer, unassigned) [Example 59] | – | – | 1 to 10 | 1 to 10
26 | O=C(Nc1c2c(cc3c1CCC3)CCC2)NS1(=O)=NC(=O)c2c(F)cccc21 (single isomer, unassigned) [Example 61] | – | – | < 1 | 1 to 10
27 | O=C(Nc1c2c(cc3c1CCC3)CCC2)NS1(=O)=NC(=O)c2ccc(F)cc21 (single isomer, unassigned) [Example 63] | 1 to 10 | – | < 1 | 1 to 10
28 | O=C(Nc1c2c(cc3c1CCC3)CCC2)NS1(=O)=NC(=O)c2nc(Cl)ccc21 (single isomer, unassigned) [Example 64] | – | 1 to 10 | < 1 | < 1
29 | O=C(N=S1(=O)NC(=O)c2cccnc21)Nc1c2c(cc3c1CCC3)CCC2 (stereo not shown) [Example 2] | 1 to 10 | – | < 1 | 1 to 10
30 | O=C(Nc1cc2c(c3c1CCC3)CCC2)NS1(=O)=NC(=O)c2ccccc21 (stereo not shown) [Example 6] | 1 to 10 | – | 1 to 10 | 1 to 10
31 | O=C(Nc1c2c(cc3c1CCC3)CCC2)NS1(=O)=NC(=O)c2ccncc21 (stereo not shown) [Example 7] | 1 to 10 | – | < 1 | 1 to 10
32 | O=C(Nc1c2c(cc3c1CCC3)CCC2)NS1(=O)=NC(=O)c2ncccc21 (stereo not shown) [Example 8] | – | – | 1 to 10 | 1 to 10
33 | COC(=O)c1ccc2c(c1)S(=O)(=NC(=O)Nc1c3c(cc4c1CCC4)CCC3)NC2=O (stereo not shown) [Example 9] | – | – | 1 to 10 | 1 to 10
34 | N#Cc1ccc2c(c1)C(=O)N=S2(=O)NC(=O)Nc1c2c(cc3c1CCC3)CCC2 (stereo not shown) [Example 10] | – | – | < 1 | 1 to 10
35 | O=C(Nc1c2c(cc3c1CCC3)CCC2)NS1(=O)=NC(=O)c2cc(Cl)ccc21 (stereo not shown) [Example 12] | 1 to 10 | – | 1 to 10 | 1 to 10
36 | O=C(Nc1c2c(cc3c1CCC3)CCC2)NS1(=O)=NC(=O)c2ccc(Cl)cc21 (stereo not shown) [Example 13] | – | – | < 1 | 1 to 10
37 | COc1ccc2c(c1)S(=O)(NC(=O)Nc1c3c(cc4c1CCC4)CCC3)=NC2=O (stereo not shown) [Example 15] | – | – | < 1 | < 1
38 | COc1cc(-c2cc(F)cc(C(C)C)c2NC(=O)NS2(=O)=NC(=O)c3sccc32)ccn1 (stereo not shown) [Example 17] | – | – | < 1 | < 1
39 | COc1ccc2c(c1)C(=O)N=S2(=O)NC(=O)Nc1c2c(cc3c1CCC3)CCC2 (stereo not shown) [Example 22] | – | – | < 1 | 1 to 10
40 | O=C(Nc1c2c(cc3c1CCC3)CCC2)NS1(=O)=NC(=O)c2cc(Br)ccc21 (stereo not shown) [Example 23] | – | – | < 1 | 1 to 10
41 | O=C(N=S1(=O)NC(=O)c2ccc(Br)cc21)Nc1c2c(cc3c1CCC3)CCC2 (stereo not shown) [Example 24] | 1 to 10 | – | < 1 | 1 to 10
42 | O=C(Nc1c2c(cc3c1CCC3)CCC2)NS1(=O)=NC(=O)c2c(F)cccc21 (stereo not shown) [Example 25] | < 1 | – | < 1 | 1 to 10
43 | O=C(Nc1c2c(cc3c1CCC3)CCC2)NS1(=O)=NC(=O)c2cc(F)ccc21 (stereo not shown) [Example 26] | < 1 | – | < 1 | 1 to 10
44 | O=C(N=S1(=O)NC(=O)c2ccc(C(F)(F)F)cc21)Nc1c2c(cc3c1CCC3)CCC2 (stereo not shown) [Example 27] | – | – | < 1 | 1 to 10
45 | O=C(Nc1c2c(cc3c1CCC3)CCC2)NS1(=O)=NC(=O)c2ccc(F)cc21 (stereo not shown) [Example 28] | – | – | < 1 | 1 to 10
